Tests used:
Experiment in all cases: cells
Details in all cases: Homo sapiens
[1] = system: A388; type: functional, cell-based;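 note: growth inhibition of human A388 cells, read out with a cell viability assay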
Description: SANGER: Inhibition of human A388 cell growth in a cell viability assay.

[2] = system: MZ7-mel; type: functional, cell-based;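 note: growth inhibition of human MZ7-mel cells, measured by a cell viability assay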
Description: SANGER: Inhibition of human MZ7-mel cell growth in a cell viability assay.

[3] = system: KGN; type: functional, cell-based;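 note: growth inhibition of KGN cells, read out with a cell viability assay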
Description: SANGER: Inhibition of human KGN cell growth in a cell viability assay.

[4] = system: HT-144; type: functional, cell-based
Description: SANGER: Inhibition of human HT-144 cell growth in a cell viability assay.

[5] = system: SHP77; type: functional, cell-based, SHP-77;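 note: growth inhibition of human SHP-77 cells measured by a cell viability assay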
Description: SANGER: Inhibition of human SHP-77 cell growth in a cell viability assay.

[6] = system: EW-24; type: functional, cell-based;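 note: human EW-24 cancer cell line, growth inhibition read out via a cell viability assay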
Description: SANGER: Inhibition of human EW-24 cell growth in a cell viability assay.

[7] = system: ES3; type: functional, cell-based;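 note: growth inhibition of ES3 cells, read out with a cell viability assay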
Description: SANGER: Inhibition of human ES3 cell growth in a cell viability assay.

[8] = system: KM12; type: functional, cell-based;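 note: KM12 cell growth inhibition, read out with a cell viability assay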
Description: SANGER: Inhibition of human KM12 cell growth in a cell viability assay.

[9] = system: LS-123; type: functional, cell-based
Description: SANGER: Inhibition of human LS-123 cell growth in a cell viability assay.

[10] = system: NCI-H69; type: functional, cell-based;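 note: growth inhibition of the cell line, read out with a cell viability assay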
Description: SANGER: Inhibition of human NCI-H69 cell growth in a cell viability assay.

[11] = system: SK-MEL-2; type: functional, cell-based;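 note: growth inhibition of human SK-MEL-2 cells measured with a cell viability assay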
Description: SANGER: Inhibition of human SK-MEL-2 cell growth in a cell viability assay.

[12] = system: ACN; type: functional, cell-based;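 note: growth inhibition of the human ACN cell line, read out via cell viability testing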
Description: SANGER: Inhibition of human ACN cell growth in a cell viability assay.

[13] = system: LB771-HNC; type: functional, cell-based;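 note: growth inhibition of LB771-HNC human cells, read out with a cell viability assay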
Description: SANGER: Inhibition of human LB771-HNC cell growth in a cell viability assay.

[14] = system: JAR; type: functional, cell-based;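 note: growth inhibition of human JAR cells determined with a cell viability assay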
Description: SANGER: Inhibition of human JAR cell growth in a cell viability assay.

[15] = system: A3-KAW; type: functional, cell-based;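 note: growth inhibition of human A3-KAW cells, read out with a cell viability assay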
Description: SANGER: Inhibition of human A3-KAW cell growth in a cell viability assay.

[16] = system: COR-L88; type: functional, cell-based;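 note: growth inhibition of COR-L88 cells, read out with a cell viability assay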
Description: SANGER: Inhibition of human COR-L88 cell growth in a cell viability assay.

[17] = system: KY821; type: functional, cell-based;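 note: growth inhibition of human KY821 cells, read out by a cell viability assay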
Description: SANGER: Inhibition of human KY821 cell growth in a cell viability assay.

[18] = system: A101D; type: functional, cell-based;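 note: growth inhibition of the cell line, measured with a viability assay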
Description: SANGER: Inhibition of human A101D cell growth in a cell viability assay.

[19] = system: QIMR-WIL; type: functional, cell-based;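 note: growth inhibition of QIMR-WIL cells, read out with a cell viability assay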
Description: SANGER: Inhibition of human QIMR-WIL cell growth in a cell viability assay.

[20] = system: GB-1; type: functional, cell-based;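 note: growth of GB-1 cells judged by a viability assay, IC50 marks the concentration inhibiting growth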
Description: SANGER: Inhibition of human GB-1 cell growth in a cell viability assay.

[21] = system: OCI-AML2; type: functional, cell-based;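 note: growth inhibition of OCI-AML2 cells, read out with a cell viability assay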
Description: SANGER: Inhibition of human OCI-AML2 cell growth in a cell viability assay.

[22] = system: OS-RC-2; type: functional, cell-based;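 note: growth inhibition of human OS-RC-2 cells, measured by a cell viability assay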
Description: SANGER: Inhibition of human OS-RC-2 cell growth in a cell viability assay.

[23] = system: COLO-800; type: functional, cell-based;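 note: growth inhibition of COLO-800 cells, read out with a cell viability assay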
Description: SANGER: Inhibition of human COLO-800 cell growth in a cell viability assay.

[24] = system: SBC-1; type: functional, cell-based;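 note: cell viability assay measuring growth inhibition of the SBC-1 cell line, IC50 being the concentration that halves growth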
Description: SANGER: Inhibition of human SBC-1 cell growth in a cell viability assay.

[25] = system: C8166; type: functional, cell-based;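 note: growth inhibition of human C8166 cells measured by a cell viability assay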
Description: SANGER: Inhibition of human C8166 cell growth in a cell viability assay.

[26] = system: COLO-668; type: functional, cell-based
Description: SANGER: Inhibition of human COLO-668 cell growth in a cell viability assay.

[27] = system: SJSA-1; type: functional, cell-based;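 note: growth inhibition of human SJSA-1 cells, read out through a cell viability measurement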
Description: SANGER: Inhibition of human SJSA-1 cell growth in a cell viability assay.

[28] = system: ES8; type: functional, cell-based;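 note: growth inhibition of human ES8 cells, read out with a cell viability assay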
Description: SANGER: Inhibition of human ES8 cell growth in a cell viability assay.

[29] = system: EW-3; type: functional, cell-based;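 note: cell viability assay read-out, IC50 reflects inhibition of growth of the EW-3 cells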
Description: SANGER: Inhibition of human EW-3 cell growth in a cell viability assay.

[30] = system: EW-18; type: functional, cell-based;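 note: growth inhibition of EW-18 cells, read out by a cell viability assay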
Description: SANGER: Inhibition of human EW-18 cell growth in a cell viability assay.

[31] = system: HuTu80; type: functional, cell-based, HUTU-80;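 note: growth inhibition of HuTu80 human cells, determined with a cell viability readout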
Description: SANGER: Inhibition of human HUTU-80 cell growth in a cell viability assay.

[32] = system: SNU-5; type: functional, cell-based;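 note: cell viability readout used to measure growth inhibition in human NCI-SNU-5 cells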
Description: SANGER: Inhibition of human NCI-SNU-5 cell growth in a cell viability assay.

[33] = system: EOL1; type: functional, cell-based;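 note: growth inhibition of EoL-1 cells, read out by a cell viability assay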
Description: SANGER: Inhibition of human EoL-1-cell cell growth in a cell viability assay.

[34] = system: SK-PN-DW; type: functional, cell-based;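 note: growth inhibition measured with a viability assay on these cells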
Description: SANGER: Inhibition of human SK-PN-DW cell growth in a cell viability assay.

[35] = system: RKO; type: functional, cell-based;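 note: growth inhibition of human RKO cells, read out with a cell viability assay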
Description: SANGER: Inhibition of human RKO cell growth in a cell viability assay.

[36] = system: LNCaP-Clone-FGC; type: functional, cell-based
Description: SANGER: Inhibition of human LNCaP-Clone-FGC cell growth in a cell viability assay.

[37] = system: NCI-H1155; type: functional, cell-based;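 note: cell growth inhibition measured by a viability assay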
Description: SANGER: Inhibition of human NCI-H1155 cell growth in a cell viability assay.

[38] = system: BB30-HNC; type: functional, cell-based;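 note: growth inhibition of the cultured cell line, read out by a cell viability assay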
Description: SANGER: Inhibition of human BB30-HNC cell growth in a cell viability assay.

[39] = system: BE-13; type: functional, cell-based;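 note: growth inhibition of human BE-13 cells, measured with a cell viability assay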
Description: SANGER: Inhibition of human BE-13 cell growth in a cell viability assay.

[40] = system: LB831-BLC; type: functional, cell-based;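 note: growth inhibition of LB831-BLC cells, read out with a cell viability assay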
Description: SANGER: Inhibition of human LB831-BLC cell growth in a cell viability assay.

[41] = system: KMOE-2; type: functional, cell-based;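 note: growth inhibition of human KMOE-2 cells, read out with a cell viability assay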
Description: SANGER: Inhibition of human KMOE-2 cell growth in a cell viability assay.

[42] = system: NB6; type: functional, cell-based;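 note: growth inhibition of NB6 cells, read out by a cell viability assay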
Description: SANGER: Inhibition of human NB6 cell growth in a cell viability assay.

[43] = system: SK-N-FI; type: functional, cell-based;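 note: cell viability assay measuring growth inhibition of human SK-N-FI cells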
Description: SANGER: Inhibition of human SK-N-FI cell growth in a cell viability assay.

[44] = system: Calu-6; type: functional, cell-based;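 note: growth of human Calu-6 cells, read out by a cell viability assay, IC50 marking inhibition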
Description: SANGER: Inhibition of human Calu-6 cell growth in a cell viability assay.

[45] = system: EW-1; type: functional, cell-based;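 note: growth inhibition of the human EW-1 cell line, read out by a cell viability assay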
Description: SANGER: Inhibition of human EW-1 cell growth in a cell viability assay.

[46] = system: NCI-H209; type: functional, cell-based;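 note: growth inhibition of human NCI-H209 cells, measured by a cell viability assay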
Description: SANGER: Inhibition of human NCI-H209 cell growth in a cell viability assay.

[47] = system: TE-10; type: functional, cell-based;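 note: growth inhibition of TE-10 cells, measured by a cell viability assay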
Description: SANGER: Inhibition of human TE-10 cell growth in a cell viability assay.

[48] = system: DMS-114; type: functional, cell-based
[49] = system: SW872; type: functional, cell-based;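 note: growth inhibition of SW872 cells, read out by a viability assay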
Description: SANGER: Inhibition of human SW872 cell growth in a cell viability assay.

[50] = system: IST-MEL1; type: functional, cell-based;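 note: growth inhibition of the cell line, read out with a cell viability assay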
Description: SANGER: Inhibition of human IST-MEL1 cell growth in a cell viability assay.

[51] = system: NCI-H446; type: functional, cell-based;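 note: growth inhibition of NCI-H446 cells determined by a cell viability assay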
Description: SANGER: Inhibition of human NCI-H446 cell growth in a cell viability assay.

[52] = system: GCIY; type: functional, cell-based;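 note: growth inhibition of the human GCIY cell line, read out by a cell viability assay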
Description: SANGER: Inhibition of human GCIY cell growth in a cell viability assay.

[53] = system: GOTO; type: functional, cell-based;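 note: growth inhibition of GOTO cells, read out by a cell viability assay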
Description: SANGER: Inhibition of human GOTO cell growth in a cell viability assay.

[54] = system: LB2241-RCC; type: functional, cell-based;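 note: cell viability assay measuring how strongly the cultured human renal carcinoma line is prevented from growing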
Description: SANGER: Inhibition of human LB2241-RCC cell growth in a cell viability assay.

[55] = system: CCRF-CEM; type: functional, cell-based
Description: SANGER: Inhibition of human CCRF-CEM cell growth in a cell viability assay.

[56] = system: TE-6; type: functional, cell-based
Description: SANGER: Inhibition of human TE-6 cell growth in a cell viability assay.

[57] = system: ES1; type: functional, cell-based
Description: SANGER: Inhibition of human ES1 cell growth in a cell viability assay.

[58] = system: LS-513; type: functional, cell-based
Description: SANGER: Inhibition of human LS-513 cell growth in a cell viability assay.

[59] = system: IST-SL1; type: functional, cell-based
Description: SANGER: Inhibition of human IST-SL1 cell growth in a cell viability assay.

[60] = system: K5; type: functional, cell-based
Description: SANGER: Inhibition of human K5 cell growth in a cell viability assay.

[61] = system: RXF 393; type: functional, cell-based
Description: SANGER: Inhibition of human RXF393 cell growth in a cell viability assay.

[62] = system: P30-OHK; type: functional, cell-based
Description: SANGER: Inhibition of human P30-OHK cell growth in a cell viability assay.

[63] = system: A704; type: functional, cell-based
Description: SANGER: Inhibition of human A704 cell growth in a cell viability assay.

[64] = system: SNU-C2B; type: functional, cell-based
Description: SANGER: Inhibition of human SNU-C2B cell growth in a cell viability assay.

[65] = system: IA-LM; type: functional, cell-based
Description: SANGER: Inhibition of human IA-LM cell growth in a cell viability assay.

[66] = system: HCE-4; type: functional, cell-based
Description: SANGER: Inhibition of human HCE-4 cell growth in a cell viability assay.

SMILES: Cc1ccc(NC(=O)c2cccc(C(C)(C)C#N)c2)cc1Nc1ccc2ncn(C)c(=O)c2c1
- IC50 [1]: > 4 µM
- IC50 [2]: 0.117 µM
- IC50 [3]: > 4 µM
- IC50 [4]: 0.00661 µM
- IC50 [5]: > 4 µM
- IC50 [6]: 2.71 µM
- IC50 [7]: > 4 µM
- IC50 [8]: 2.08 µM
- IC50 [9]: > 4 µM
- IC50 [10]: > 4 µM
- IC50 [11]: 3.22 µM
- IC50 [12]: < 0.0156 µM
- IC50 [13]: > 4 µM
- IC50 [14]: > 4 µM
- IC50 [15]: > 4 µM
- IC50 [16]: > 4 µM
- IC50 [17]: > 4 µM
- IC50 [18]: 0.00582 µM
- IC50 [19]: 3.23 µM
- IC50 [20]: > 4 µM
- IC50 [21]: 0.017 µM
- IC50 [22]: > 4 µM
- IC50 [23]: > 4 µM
- IC50 [24]: > 4 µM
- IC50 [25]: > 4 µM
- IC50 [26]: > 4 µM
- IC50 [27]: 1.43 µM
- IC50 [28]: > 4 µM
- IC50 [29]: > 4 µM
- IC50 [30]: > 4 µM
- IC50 [31]: 0.983 µM
- IC50 [32]: 2.81 µM
- IC50 [33]: > 4 µM
- IC50 [34]: > 4 µM
- IC50 [35]: 0.0377 µM
- IC50 [36]: > 4 µM
- IC50 [37]: > 4 µM
- IC50 [38]: 1.96 µM
- IC50 [39]: 0.806 µM
- IC50 [40]: > 4 µM
- IC50 [41]: 0.116 µM
- IC50 [42]: > 4 µM
- IC50 [43]: > 4 µM
- IC50 [44]: 0.0515 µM
- IC50 [45]: > 4 µM
- IC50 [46]: > 4 µM
- IC50 [47]: > 4 µM
- IC50 [48]: > 4 µM
- IC50 [49]: 0.0965 µM
- IC50 [50]: 0.204 µM
- IC50 [51]: > 4 µM
- IC50 [52]: > 4 µM
- IC50 [53]: > 4 µM
- IC50 [54]: > 4 µM
- IC50 [55]: > 4 µM
- IC50 [56]: > 4 µM
- IC50 [57]: > 4 µM
- IC50 [58]: 0.0741 µM
- IC50 [59]: > 4 µM
- IC50 [60]: 0.134 µM
- IC50 [61]: > 4 µM
- IC50 [62]: > 4 µM

SMILES: NC(=O)c1ncn([C@@H]2O[C@H](COP(=O)(O)O)[C@@H](O)[C@H]2O)c1N
- IC50 [1]: > 2000 µM
- IC50 [2]: 1770 µM
- IC50 [3]: 630 µM
- IC50 [4]: > 2000 µM
- IC50 [5]: > 2000 µM
- IC50 [6]: > 2000 µM
- IC50 [7]: 1100 µM
- IC50 [63]: > 2000 µM
- IC50 [8]: > 2000 µM
- IC50 [9]: 690 µM
- IC50 [64]: > 2000 µM
- IC50 [11]: > 2000 µM
- IC50 [12]: 1880 µM
- IC50 [13]: > 2000 µM
- IC50 [14]: 346 µM
- IC50 [15]: 368 µM
- IC50 [18]: > 2000 µM
- IC50 [19]: 486 µM
- IC50 [20]: > 2000 µM
- IC50 [21]: 1150 µM
- IC50 [22]: > 2000 µM
- IC50 [23]: > 2000 µM
- IC50 [24]: 1400 µM
- IC50 [25]: 1170 µM
- IC50 [26]: > 2000 µM
- IC50 [27]: 949 µM
- IC50 [28]: > 2000 µM
- IC50 [30]: > 2000 µM
- IC50 [31]: > 2000 µM
- IC50 [32]: > 2000 µM
- IC50 [34]: 741 µM
- IC50 [65]: 859 µM
- IC50 [35]: 830 µM
- IC50 [36]: > 2000 µM
- IC50 [37]: 800 µM
- IC50 [38]: 214 µM
- IC50 [66]: 1710 µM
- IC50 [39]: 365 µM
- IC50 [40]: > 2000 µM
- IC50 [41]: 415 µM
- IC50 [42]: > 2000 µM
- IC50 [44]: 732 µM
- IC50 [45]: 1870 µM
- IC50 [46]: > 2000 µM
- IC50 [47]: 1510 µM
- IC50 [48]: 1580 µM
- IC50 [49]: > 2000 µM
- IC50 [50]: > 2000 µM
- IC50 [51]: > 2000 µM
- IC50 [53]: > 2000 µM
- IC50 [54]: 1370 µM
- IC50 [55]: > 2000 µM
- IC50 [56]: > 2000 µM
- IC50 [57]: > 2000 µM
- IC50 [58]: > 2000 µM
- IC50 [59]: > 2000 µM
- IC50 [60]: > 2000 µM
- IC50 [61]: 710 µM
- IC50 [62]: 541 µM

Reference: ChEMBL document CHEMBL1201861, “Genomics of Drug Sensitity in Cancer screening data, Wellcome Trust Sanger Institute”
